Measured values from patent US20080045463A1, “Methods For Lowering Hif-1 Mediated Gene Expression” (priority 2004, published 2008).
Entries after “also recorded” stand apart in the source; their conditions may differ. One block for each compound: values may come before it. Where a SMILES comes first, the peptide text is derived from it. The star is where a group is joined. Cbz = O=C(OCc1ccccc1)*

Experiments:
[1] = tested on: HIF-1α; assay: Nuclear HIF-1α accumulation in human cancer cell lines (western blot); assay type: cell-based; details: for dose inducing HIF-1α (doses as low as): culture times longer than 8 h; for threshold dose for inducing HIF-1α accumulation: four hours period of cell culture; for HIF-1α accumulation induced by metabolite: substituted for glucose in Krebs buffer, normoxia; for HIF-1α accumulation induced by metabolite / HIF-1α accumulation induced by oxidant: four hours; for HIF-1α accumulation induced by oxidant: U251 cells; for inhibition of HIF-1α accumulation, L- vs D-isomers and dimer: U87, four hours, glucose-free Krebs, 1 mM pyruvate or oxaloacetate, 250 μM (FIG. 3C)
Method: Human U87, U251, U251-HRE (20) and U373 glioma cells were cultured in Eagle's MEM medium (Mediatech). […] 22B Human head and neck cancer cells were cultured in high glucose DMEM (Gibco) containing 2 mM glutamine. C6 ODD-GFP rat glioma cells were cultured in high glucose DMEM with 1.5 mg/ml G418. All culture media were supplemented with 10% fetal bovine serum and 1% (v/v) penicillin/streptomycin. Rat C6 glioma cells were cultured in high glucose DMEM. For cell hypoxia treatment, the culture dishes were sealed in a modular incubator chamber, flushed with gas containing 1% O2, 5% CO2 and 94% N2 for 5 minutes, and incubated in this environment at 37° C. for indicated times.
Protein extraction, western blot analysis, and immunocytochemistry were performed as previously described. […] Mouse monoclonal anti-β-actin antibody was ab6276-100 (Abcam). Dimethyloxalylglycine was D1070 (Frontier Scientific). All other chemicals were from Sigma.

[2] = tested on: labile intracellular iron pool; assay: Calcein fluorescence assay for cellular free iron; assay type: cell-based, human; details: calcein loaded U251 cells
Method: The ability of 2-oxoacids to chelate the labile intracellular iron pool was measured using the calcein fluorescence assay as previously described. The iron chelators desferrioxamine and bipyridyl were used as positive controls.

[3] = tested on: HPH; assay: 2-Oxoglutarate: HPH binding assay; set-up: species or system human; details: competitor 10 mM
Method: Gel was washed four times with the indicated buffer. Analysis of HPH binding was measured by scintillation counting.

[4] = tested on: HIF-1α; assay: HIF-1α accumulation in 22B head and neck cancer cells; assay type: cell-based, human; details: 22B cells, 100 μM each, last 30 minutes after 24 hours accumulation
Method: (§1) Human U87, U251, U251-HRE (20) and U373 glioma cells were cultured in Eagle's MEM medium (Mediatech). DU145 human prostate cancer cells and 022 human head and neck cancer cells were cultured in RPMI 1640 medium (Sigma). 22B Human head and neck cancer cells were cultured in high glucose DMEM (Gibco) containing 2 mM glutamine. C6 ODD-GFP rat glioma cells were cultured in high glucose DMEM with 1.5 mg/ml G418. All culture media were supplemented with 10% fetal bovine serum and 1% (v/v) penicillin/streptomycin. Rat C6 glioma cells were cultured in high glucose DMEM. For cell hypoxia treatment, the culture dishes were sealed in a modular incubator chamber, flushed with gas containing 1% O2, 5% CO2 and 94% N2 for 5 minutes, and incubated in this environment at 37° C. for indicated times.
(§2) Protein extraction, western blot analysis, and immunocytochemistry were performed as previously described. Mouse monoclonal anti-HIF-1α antibodies were 610958 (BD Biosciences), and NB100-123 (Novus). Mouse monoclonal anti-GFP antibody was 1814460 (Roche). Mouse monoclonal anti-β-actin antibody was ab6276-100 (Abcam). Dimethyloxalylglycine was D1070 (Frontier Scientific). All other chemicals were from Sigma. Antibodies recognizing HPH homologues were from Novus biologicals and the antisera recognizing […] of HIF-1α was kindly provided by R. Freeman.

[5] = tested on: HIF-1α; assay: HIF-1α decay after washout of inducer; assay type: cell-based, human
Method: as §1, §2
To test this U251 cells was exposed to glucose-free Krebs buffer to either hypoxia (1% O2) or 2 mM pyruvate for four hours. Nuclear HIF-1α protein accumulation was induced by both treatments (FIG. 6A). […] HIF-1α immunoreactivity disappeared rapidly upon reoxygenation (return to 21% O2) of hypoxic cells as would be expected with the resumption of oxygen-dependent HIF-1α hydroxylation and proteolysis. […] To directly determine if the HPH activity in glioma cells was reversibly inactivated by pyruvate and oxaloacetate the ^35S-pVHL pulldown assay to measure HPH activity in extracts from cells treated for four hours with the 2-oxoacids was used. To capture the endogenous state of HPH activity, the cell extracts were first assayed without supplementation with exogenous reductants, ascorbate, or iron. […] The minimal HPH activity of extracts from pyruvate or oxaloacetate treated cells could also be restored by supplementation of the extracts with ascorbate or with exogenous ferrous iron (FeSO4) during the assay (FIG. 6D).

[6] = tested on: HIF-1α; assay: HIF-1α hydroxyproline detection in U251 whole cell extracts; assay type: cell-based, human; details: U251, four hours, antibody to hydroxylated ODD region
Method: as §2
Some reactive oxygen species can also induce HIF-1α. […] Next, attention was focused on HIF-1α proline hydroxylation as a target for 2-oxoacids.

[7] = tested on: HPH1, HPH2, and HPH3; assay: HPH prolyl hydroxylation assay with in vitro translated HPHs (35S-pVHL pulldown); assay type: biochemical, human; details: in the absence of ascorbate or other reducing agents
Method: Human HPH-1,2,3 and VHL pcDNA3.1/V5-HIS vectors (kindly provided by R. Bruick) were used for TNT Coupled Reticulocyte Lysate in vitro transcription/translation (Promega). Cytoplasmic extract for HPH activity was made by lysing cell pellets in assay buffer (20 mM Tris, pH 7.5, 5 mM KCl, 1.5 mM MgCl2, and 1 mM DTT) at 4° C. using a homogenizer, centrifuging at 20,000 g for 15 minutes and collecting supernatant for the assay. HPH enzymatic reactions were performed as previously described using either IVT products or cell extracts. This assay, chosen for its specificity for the HPH reaction, was linear over 30 minutes. For each reaction, either 7.5 μL of IVT products or 100 μg of cell extract protein were used as source of the enzyme. Activity was measured by either quantitative scintillation counting or by autoradiography after gel electrophoresis on a 10-20% Tris Glycine gradient gel (Invitrogen).
To determine whether HPH activity was directly modulated by pyruvate or oxaloacetate, Pro564 hydroxylation in a biotinylated HIF-1α ODD peptide by in vitro translated HPH1, HPH2, and HPH3 was examined. The ability of streptavidin beads to pull down ^35S-pVHL bound to the biotinylated peptide was used as evidence of HIF-1α ODD peptide hydroxylation. This is the most specific and sensitive assay for HPH activity. […] Such assays can also give high background values in cell extracts.

[8] = tested on: VEGF and GLUT3; assay: RT-PCR of HIF-1 regulated genes in U87 cells; assay type: cell-based, human; details: U87, 5× the level normally found in MEM, 2 d
Method: Total RNA was isolated using the RNeasy kit (Qiagen). For RT-PCR, 1 μg of total RNA was used with the […] One-Step System (Invitrogen). VEGF, GLUT3, and β-Actin primers were described previously. For quantitative PCR analysis, the iQ SY BR Green Supermix and MyiQ Single-Color

[9] = tested on: HIF-1; assay: HIF-1 luciferase reporter assay in U251-HRE cells; assay type: cell-based, human; details: 8 h
[10] = tested on: ODD-GFP; assay: Live cell assay for oxygen-dependent degradation, ODD-GFP transfected C6 glioma cells; assay type: cell-based, rat; details: C6 cells in Krebs buffer, 24 hours
Method: as §1
Next a live cell assay for oxygen-dependent HIF-1α degradation using C6 rat glioma cells that had been stably transfected with a vector encoding the HIF-1 cc ODD region fused to GFP (ODD-GFP) was performed. The ODD-GFP protein is hydroxylated and degraded in an oxygen dependent manner similar to HIF-1α. As with HIF-1α, a basal, as well as, hypoxia-inducible accumulation of ODD-GFP has been reported.

Structure (SMILES): CC(=O)C(=O)O [pyruvate]
dose inducing HIF-1α (doses as low as) [1]: 100 µM | threshold dose for inducing HIF-1α accumulation [1]: about 300 μM

Structure (SMILES): O=C(O)CC(O)C(=O)O (stereo not shown) [malate]
HIF-1α accumulation induced by metabolite [1]: unable to induce HIF-1α accumulation

Structure (SMILES): O=C(O)CC(=O)C(=O)O [oxaloacetate]
dose inducing HIF-1α (doses as low as) [1]: 100 µM | threshold dose for inducing HIF-1α accumulation [1]: about 300 μM

Structure (SMILES): CC(=O)CC(=O)O [acetoacetate]
HIF-1α accumulation induced by metabolite [1]: unable to induce HIF-1α accumulation

Structure (SMILES): OO [H2O2]
HIF-1α accumulation induced by oxidant [1]: induce HIF-1α accumulation

Structure (SMILES): CCOC(=O)C(C)=O [ethyl esters of pyruvate, ethyl-pyruvate]
HIF-1α accumulation induced by metabolite [1]: effective

Structure (SMILES): c1ccc(-c2ccccn2)nc1 [bipyridyl]
intracellular calcein fluorescence [2]: increase in fluorescence

Structure (SMILES): O=C(O)CCCC(=O)C(=O)O [α-ketoadipate]
HIF-1α accumulation induced by metabolite [1]: did not induce HIF-1α accumulation

Structure (SMILES): N[C@@H](CSSC[C@H](N)C(=O)O)C(=O)O [cystine]
inhibition of HIF-1α accumulation, L- vs D-isomers and dimer [1]: effective

Structure (SMILES): CC(C)C(=O)C(=O)O [α-ketoisovalerate]
HIF-1α accumulation induced by metabolite [1]: minor activity

Structure (SMILES): O=C(O)CCC(=O)C(=O)O [2-OG, 2-oxoglutarate]
displacement of iron dependent binding of 35S-HPHs to immobilized 2-OG [3]: readily displaced

Structure (SMILES): [Fe+3] [Fe(III)]
accumulated (pyruvate-enhanced) HIF-1α after supplementation [4]: Fe(II)>Fe(III) | accumulated (pyruvate-enhanced) HIF-1α after supplementation ([4]; listed as ferric iron): diminished to a greater extent by ferrous iron than by ferric iron | HIF-1α decay following induction with pyruvate or oxaloacetate, iron in wash ([5]; 100 μM each): not Fe(III) | decay of NO-induced HIF-1α with iron in wash ([5]; 100 μM each): not Fe(III) | decay of accumulated HIF-1α after washing out DFO, iron added ([5]; 100 μM each): not Fe(III)

Structure (SMILES): CCC(=O)C(=O)O [α-ketobutyrate]
HIF-1α accumulation induced by metabolite [1]: did not induce HIF-1α accumulation

Structure (SMILES): CC(C)CC(=O)C(=O)O [α-ketoisocaproate]
HIF-1α accumulation induced by metabolite [1]: active in some but not all cell lines

Structure (SMILES): NCCN(CCN)[N+]([O-])=NO [NO]
HIF-1α accumulation induced by oxidant [1]: induce HIF-1α accumulation | HIF-1α decay after washing of NO treated cells ([5]; extensive washing with MEM): sluggish HIF-1α decay

Structure (SMILES): C[C@H](N)C(=O)O [alanine]
HIF-1α accumulation induced by metabolite [1]: unable to induce HIF-1α accumulation

Structure (SMILES): CC[C@H](C)C(=O)C(=O)O [α-keto-β-methylvalerate]
HIF-1α accumulation induced by metabolite [1]: active in some but not all cell lines

Structure (SMILES): CC(=O)C=O [pyruvaldehyde]
HIF-1α accumulation induced by metabolite [1]: unable to induce HIF-1α accumulation

Structure (SMILES): N[C@@H](CCC(=O)N[C@@H](CS)C(=O)NCC(=O)O)C(=O)O [GSH, glutathione]
HIF-1α accumulation by hypoxia or the iron chelator DFO ([1]; FIG. 3C, 1% O2 or 150 μM DFO): not by hypoxia or DFO | inhibition of HIF-1α accumulation, L- vs D-isomers and dimer [1]: selectively inhibited | NO induced HIF-1α accumulation ([1]; U251, MEM, DETA-NO 300 μM, ascorbate 100 μM, Fe(II) 100 μM, GSH 5 mM): complete inhibition | HIF-1α decay with agent added to the wash ([5]; U87 after pyruvate or oxaloacetate, 100 μM ascorbate, 5 mM GSH or MEM amino acid mixture): HIF-1α decay was rapidly resumed

Structure (SMILES): CC(C)C[C@@H](C=O)NC(=O)[C@H](CC(C)C)NC(=O)[C@H](CC(C)C)NC(=O)OCc1ccccc1 [MG132] (Cbz-Leu-Leu-Leu-aldehyde)
hydroxyproline (Pro564) in induced HIF-1α [6]: hydroxyproline was detected

Structure (SMILES): N[C@@H](Cc1c[nH]cn1)C(=O)O [histidine]
stimulation of HIF-1α ODD hydroxylation [7]: dose dependently stimulate HIF-1α ODD hydroxylation | basal expression of the HIF-1 regulated genes VEGF and GLUT3 [8]: lowered the basal expression

Structure (SMILES): NC(=O)CC[C@H](N)C(=O)O [glutamine]
basal HIF-1α accumulation ([1]; U251 cells switched to Krebs buffer for 4 hours, 10 mM glutamine): no basal HIF-1α accumulation

displacement of iron dependent binding of 35S-HPHs to immobilized 2-OG [3]: did not find a significant effect
Structure (SMILES): O=C(O)/C=C/C(=O)O [fumarate]
induction of HIF-1 regulated reporter gene (HRE-luciferase) [9]: did not find a significant effect | HIF-1α accumulation induced by metabolite [1]: unable to induce HIF-1α accumulation; also recorded: did not find a significant effect | stimulation of basal ODD-GFP accumulation [10]: did not find a significant effect

Structure (SMILES): O=C(O)C(=O)C(=O)O [ketomalonate]
HIF-1α accumulation induced by metabolite [1]: did not induce HIF-1α accumulation

Structure (SMILES): CC(=O)N(O)CCCCCNC(=O)CCC(=O)N(O)CCCCCNC(=O)CCC(=O)N(O)CCCCCN [DFO, desferrioxamine]
intracellular calcein fluorescence [2]: increase in fluorescence

Structure (SMILES): O=C(O)C(=O)CF [fluoropyruvate]
HIF-1α accumulation induced by metabolite [1]: not able to induce HIF-1α accumulation

Structure (SMILES): CC(O)CC(=O)O (stereo not drawn) [β-hydroxybutyrate]
HIF-1α accumulation induced by metabolite [1]: unable to induce HIF-1α accumulation

Structure (SMILES): O=C(O)CCC(=O)O [Succinate]
induction of HIF-1 regulated reporter gene (HRE-luciferase) [9]: did not find a significant effect | displacement of iron dependent binding of 35S-HPHs to immobilized 2-OG [3]: not by succinate; also recorded: did not find a significant effect | HIF-1α accumulation induced by metabolite [1]: unable to induce HIF-1α accumulation | HIF-1α accumulation induced by metabolite ([1]; listed as succinate): did not find a significant effect | stimulation of basal ODD-GFP accumulation [10]: not by succinate; also recorded: did not find a significant effect
